Laboratory results published in patent US20260091138A1, “VARIANTS OF COAGULATION FACTOR VIII AND USES THEREOF” (Seattle Children’s Hospital d/b/a Seattle Children’s …, priority 2022, published 2026).
Entries after “also recorded” stand apart in the source; their conditions may differ. No end group written: not given here. Man6GlcNAc2 = high-mannose N-glycan (six mannose on two GlcNAc); GlcNAc = N-acetyl-glucosamine (single GlcNAc)

How the values were obtained:
[1] = tested on: CD4+ T-cells in splenocytes isolated from FVIII-primed HA mice; experiment: Mannan inhibition in FVIII-specific T cell proliferation assay; format: cell-based, mouse
Description: (§1) CD4^+ T-cell Proliferation Assay. Mice with high titer anti-FVIII inhibitors were generated as described in the Supplemental Methods. Mouse splenocytes were isolated and stained with BD Horizon™ violet cell proliferation dye 450 (VPD450) (BD Biosciences). The labeled splenocytes were cultured and stimulated by adding FVIII as a positive proliferation control, Factor IX as a nonspecific antigen control, or peptides, either glycosylated or non-glycosylated, corresponding to site N2118. Mannan (0.1, 1, and 10 μM, respectively) was added in mannan inhibition experiments. After 96 hours, cells were stained with anti-mouse CD4 and Fixable Viability Stain (Fisher Scientific) and analyzed by flow cytometry (BDT LSR II analyzer (Fisher Scientific)). The enhancement of proliferation was calculated by subtracting the background levels in non-stimulated cells.

[2] = tested on: CD4+ T-cells in splenocytes isolated from FVIII-primed HA mice; experiment: FVIII-specific CD4+ T-cell proliferation assay; format: cell-based, mouse; conditions: for effect of peptide on CD4+ T-cell proliferation (in words): peptides 0.1 μM to 10 μM; for CD4+ T-cell proliferation: 96 hours, background subtracted
Description: as §1
Generation of hemophilia A mice with high-titer inhibitors. Anti-FVIII inhibitor mice were generated by priming the mice with 3 units (U) of recombinant full-length FVIII in 200 uL PBS 3× a week for four weeks. Mice were then sacrificed on week 5 for spleen collection or boosted one-week prior to spleen collection. Blood was drawn via retro-orbital bleed on the day of sacrifice in the same manner as before in order to measure IgG titer via enzyme-linked immunosorbent assay (ELISA).

[3] = tested on: HA mice; experiment: Total anti-FVIII IgG ELISA after plasmid-mediated gene transfer; format: in vivo, mouse
Description: (§2) Delivery of plasmids carrying BDD-FVIII and its glycosylation variants genes into HA mice. Male HA mice with a FVIII exon 16 knockout in an Sv129/BL6 mixed background between the ages of 8-14 weeks were used in all experiments. Mice were injected with liver-specific plasmids carrying BDD-FVIII and its glycosylation variants genes (FIG. 2) via hydrodynamic injection at a concentration of 25 μg/mL and a volume (ml) equal to 9% the body weight of the mouse (g). A second challenge (SC) of the same plasmids via hydrodynamic injection was performed on Day 86 to elicit robust secondary immune responses. Blood was collected by retro-orbital bleed in one-tenth volume of 3.8% sodium citrate periodically following plasmid injections.
Supplemental Methods. Measurement of total anti-FVIII IgG. 96 well flat bottom ELISA plates (Corning, Kennebunk, ME) were coated overnight at 4° C. with 0.44 U FVIII/well in coating buffer. Plates were then incubated with blocking buffer (1×Tris-Buffered Saline (TBS), 0.1% Tween-20, and 20% non-fat milk for 1 hour at 37° C. Plates were washed three times with wash buffer I 1×TBS and 0.1% Tween-20) between incubation steps. […] Concentrations of anti-FVIII IgG were evaluated by interpolation against the linear range on a standard curve created using mouse isotype control (Thermo Scientific) that was run in duplicate alongside samples on all plates.

[4] = tested on: HA mice; experiment: Anti-FVIII inhibitor titers by Bethesda assay after plasmid-mediated gene transfer; format: in vivo, mouse
Description: as §2

[5] = tested on: HA mice; experiment: FVIII functional activity (aPTT) and FVIII:Ag after hydrodynamic injection of BDD-FVIII and glycosylation variant plasmids; format: in vivo, mouse; conditions: one-week post hydrodynamic plasmid injection, average ± SD
Description: as §2
FVIII antigen (FVIII:Ag) ELISA. FVIII:Ag levels in mouse plasma post hydrodynamic injection with FVIII plasmids were determined by ELISA using murine anti-FVIII antibody (GMA-8020, Green Mountain Antibody, Burlington, VT) and biotin-labeled murine anti-FVIII antibody (GMA-8015, Green Mountain Antibody, Burlington, VT).

**Q.** What does the source list for mannan?
**A.** inhibition of T cell proliferation by mannan ([1]; in response to 0.1 U/ml FVIII): only partially inhibited; inhibition of T cell proliferation by mannan ([1]; in response to 1 U/ml or 10 U/ml FVIII): no inhibition; inhibition of T cell proliferation by mannan ([1]; in response to MP1 at 0.1 and 1 μM): inhibited; inhibition of T cell proliferation by mannan ([1]; in response to all three concentrations of 2118MP1): inhibited

**Q.** How did the “effect of peptide on CD4+ T-cell proliferation (in words)” value (“effect of peptide” below) [2] turn out when “T2114YRGN2118STGTLMVFFG2128 (TYRGNSTGTLMVFFG; non-glycosylated; UniProt P00451 2133-2147, looked up, fragment) [2118NGP2, non-glycosylated counterpart of 2118MP2]” was run?
**A.** nearly no proliferation

**Q.** How did the “CD4+ T-cell proliferation” value ([2]; peptide 10 μM) turn out when K2111WQTYRGN2118STGTLMV2125 [2118MP1] was run?
**A.** 4.2±1.3%

**Q.** And the “effect of peptide” value ([2]; listed as MP1)?
**A.** increased proliferation levels; also recorded: Enhanced proliferation

**Q.** Which “anti-FVIII IgG level compared to the other three groups” value ([3]; peak around day 56, after first plasmid transfer) does the source give for “N2118Q: BDD-FVIII plasmid variant with N2118Q mutation in the C1 domain eliminating the 2118 glycosylation site (SEQ ID NO: 23)” here?
**A.** lower antibody levels; also recorded: lower IgG level

**Q.** And the “drastic increase in anti-FVIII levels after the second challenge” value ([3]; second plasmid challenge on day 84, hydrodynamic injection)?
**A.** did not; also recorded: remained at a low level

**Q.** And the “inhibitor responses to FVIII following first plasmid challenge compared to WT BDD-FVIII plasmid” value ([4]; after first plasmid challenge)?
**A.** trend of decreased inhibitor responses

**Q.** And the “inhibitor titer / inhibitor responses post-second challenge” value ([4]; after second plasmid challenge, compared with WT BDD-FVIII)?
**A.** significantly lower inhibitor titer; also recorded: statistically significant lower inhibitor responses

**Q.** What about the “inhibitor titers (Bethesda assay) compared to other groups” value ([4]; day 56, after first plasmid transfer) of the same substance?
**A.** lower inhibitor titers; also recorded: Low inhibitor titers

**Q.** What about the “FVIII functional activity levels in treated mouse plasma (average activity)” value [5] of the same substance?
**A.** 223±77%

**Q.** “K2111WQTYRGN2118STGTLMV2125 (KWQTYRGNSTGTLMV; non-glycosylated; UniProt P00451 2130-2144, looked up, fragment) [2118NGP1, non-glycosylated 15-mer FVIII peptide centered around site N2118]” was tested. Which “effect of peptide” value [2] did it give?
**A.** negligible effects

**Q.** And the “effect of peptide” value ([2]; listed as NGP1)?
**A.** negligible effects; also recorded: nearly no proliferation

**Q.** Which “CD4+ T-cell proliferation response to protein antigen controls” value ([2]; increasing doses of FVIII, FIX as nonspecific antigen control) does the source give for “FIX: Factor IX as a nonspecific antigen control [reference compound]” here?
**A.** no response

**Q.** For “T2114YRGN2118STGTLMVFFG2128 (TYRGN(Man6GlcNAc2)STGTLMVFFG; also: mannosylated; UniProt P00451 2133-2147, looked up, fragment) [2118MP2, mannosylated overlapping 15-mer Peptide 2]”, which “CD4+ T-cell proliferation” value ([2]; peptide 1 μM) is on record?
**A.** 2.9±0.6%

**Q.** What about the “CD4+ T-cell proliferation” value ([2]; peptide 10 μM) of the same substance?
**A.** 5.5±2.0%

**Q.** What about the “effect of peptide” value ([2]; listed as MP2) of the same substance?
**A.** Enhanced proliferation; also recorded: higher proliferation compared to MP1

**Q.** With “D2108GKKWQTYRGN2118STGT2122 (DGKKWQTYRGN(Man6GlcNAc2)STGT; also: mannosylated; UniProt P00451 2127-2141, looked up, fragment) [2118MP3, mannosylated overlapping 15-mer Peptide 3]” as the substance, how does the “effect of peptide” value [2] read?
**A.** little to no proliferation

**Q.** For “K2111WQTYRGN2118STGTLMV2125 (KWQTYRGN(GlcNAc)STGTLMV; UniProt P00451 2130-2144, looked up, fragment) [2118GlcP1, Peptide 1 with a single GlcNAc residue at N2118]”, which “effect of peptide” value [2] is on record?
**A.** negligible effects
